One series concerns COUP-TF2. Details: method as in PMID 32494682. To be noted: reporter gene assay; cited from earlier work.
The subject of series [1] is HNF4α, RXRα, PPARα, LXRα, GR, PR, ER, RAR, RORγ, AR, and COUP-TF1. Details: method as in PMID 32494682. To be noted: cited from earlier work.
In series [2] the test system is COUP-TF2 target genes FOXM1 and CDK1. Also noted: method as in PMID 32494682. To be noted: prostate cancer cells; cited from earlier work.
In another series the test system is prostate cancer tumor. Also noted: method as in PMID 32494682. To be noted: xenograft mouse model, 2.6 mg/kg; cited from earlier work.
Another series addresses T1, PNR (NR2E3) (Homo sapiens, UniProt Q9Y5X4).
T1 construct: encoding the hinge region and the LBD of the canonical isoform of the respective human nuclear receptors; expressed in transfected cells; host or cells: HEK293T
T1 sequence (Q9Y5X4 169-410 limits assumed): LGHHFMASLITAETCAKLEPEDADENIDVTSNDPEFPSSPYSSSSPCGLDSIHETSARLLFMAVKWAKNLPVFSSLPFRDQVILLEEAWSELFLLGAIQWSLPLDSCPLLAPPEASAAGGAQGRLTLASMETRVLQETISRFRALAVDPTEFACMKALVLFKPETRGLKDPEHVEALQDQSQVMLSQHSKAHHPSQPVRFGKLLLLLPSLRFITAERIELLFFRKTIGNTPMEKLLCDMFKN
Nature of the series: Gal4-hybrid reporter gene assay PNR. It is filed as cell-based. To be noted: selected test concentration (Figure 3). The protocol: Gal4-hybrid reporter gene assays were performed as described previously using the plasmids pFA-CMV-hTHRα-LBD,[170] pFA-CMV-hRARα-LBD,[171] pFA-CMV-hPPARα-LBD,[172] pFA-CMV-hPPARγ-LBD,[172] pFA-CMV-hPPARδ-LBD,[172] pFA-CMV-revERBα-LBD,[158] pFA-CMV-hRORα-LBD,[173] pFA-CMV-hLXRα-LBD,[118] pFA-CMV-hFXR-LBD,[174] pFA-CMV-hVDR-LBD,[171] pFA-CMV-hCAR-LBD,[171] pFA-CMV-hHNF4α-LBD,[110] pFA-CMV-hRXRα-LBD,[175] pFA-CMV-hTR2-LBD,[102] pFA-CMV-hTR4-LBD,[102] pFA-CMV-hTLX-LBD,[102] pFA-CMV-hNR2E3-LBD,[102] pFA-CMV-hNur77-LBD,[176] pFA-CMV-hSF1-LBD[158] encoding the hinge region and the LBD of the canonical isoform of the respective human nuclear receptors. pFR-Luc (Stratagene, La Jolla, CA, USA) was used as a reporter plasmid, and pRL-SV40 (Promega, Madison, WI, USA) was used for normalization of transfection efficiency and cell growth. HEK293T cells (German Collection of Microorganisms and Cell Culture GmbH, DSMZ) were cultured in Dulbecco’s modified Eagle’s medium (DMEM), high glucose supplemented with 10% fetal calf serum (FCS), sodium pyruvate (1 mM), penicillin (100 U/mL), and streptomycin (100 μg/mL) at 37 °C and 5% CO2 and seeded in 96-well plates (3 × 10^4 cells/well). The medium was changed to Opti-MEM without supplements, and the cells were transiently transfected with one pFA-CMV-hNR-LBD clone, pFR-Luc, and pRL-SV40 using Lipofectamine LTX reagent (Invitrogen, Thermo Fisher Scientific) according to the manufacturer’s instructions. Five hours after transfection, cells were incubated with the test compounds in Opti-MEM supplemented with penicillin (100 U/mL), streptomycin (100 μg/mL), and 0.1% DMSO. Each sample was set up in duplicates and tested in at least three independent experiments. After 16 h incubation, luciferase activity was measured using the Dual-Glo Luciferase Assay System (Promega) according to the manufacturer’s protocol on a Tecan Spark luminometer (Tecan Deutschland GmbH, Crailsheim, Germany). Firefly luminescence was divided by Renilla luminescence and multiplied by 1000 resulting in relative light units (RLUs) to normalize for transfection efficiency and cell growth. Fold activation was obtained by dividing the mean RLU of the test compound by the mean^a RLU of the untreated control, and relative activation was calculated by dividing the fold activation of a test sample by the fold activation of the respective reference agonist. Antagonistic effects were evaluated by coincubation of the test compound with the respective reference ligand.
(In general: Reporter assays use an easily measured gene product as a stand-in for the process of interest.)

Series [3] concerns NR2F1. Details: method as in PMID 34812843. The following applies: cited from earlier work.
Series [4] concerns NR2F1. Details: method as in PMID 34812843. The following applies: T-Hep3 cells on chicken embryo chorioallantoic membrane; cited from earlier work.
Series [5] deals with NR2F1-regulated genes SOX9, RARβ, and p27. Also noted: method as in PMID 34812843. The following applies: chicken embryo chorioallantoic membrane tumors; cited from earlier work.
Series [6] concerns head and neck squamous-cell carcinoma (HNSCC). Also noted: method as in PMID 34812843. To be noted: mice; cited from earlier work.
Series [7] has as its target T2, TLX (Homo sapiens, UniProt Q9Y466).
T2 construct: encoding the hinge region and the LBD of the canonical isoform of the respective human nuclear receptors; expressed in transfected cells; host or cells: HEK293T
Nature of the series: Gal4-hybrid reporter gene assay TLX. It is filed as cell-based. To be noted: selected test concentration (Figure 3).

The target in another series is RARα (Homo sapiens, UniProt P10276). The following applies: selected test concentration (Figure 3).
The next series deals with HEK293T cells. To be noted: cited from earlier work.
Series [8] deals with TLX. To be noted: reporter gene assay; read-out: IC50 (first value of cell; TLX/Gal4); cited from earlier work.
The next series deals with full-length TLX. The following applies: reporter gene assay; read-out: IC50 (second value of cell; full-length TLX); cited from earlier work.
The test system of a further series is TLX LBD. To be noted: FP assay, cited from earlier work.
A further series relates to RARs and RXRs. Details: method as in PMID 32763139. The following applies: cited from earlier work.
The target of a further series is T3, TR2 (Homo sapiens, UniProt P13056).
T3 construct: encoding the hinge region and the LBD of the canonical isoform of the respective human nuclear receptors; expressed in transfected cells; host or cells: HEK293T
Nature of the series: Gal4-hybrid reporter gene assay TR2. It is filed as cell-based. To be noted: 1 µM. The procedure:
(§1) Gal4-hybrid reporter gene assays were performed as described previously using the plasmids pFA-CMV-hTHRα-LBD,[170] pFA-CMV-hRARα-LBD,[171] pFA-CMV-hPPARα-LBD,[172] pFA-CMV-hPPARγ-LBD,[172] pFA-CMV-hPPARδ-LBD,[172] pFA-CMV-revERBα-LBD,[158] pFA-CMV-hRORα-LBD,[173] pFA-CMV-hLXRα-LBD,[118] pFA-CMV-hFXR-LBD,[174] pFA-CMV-hVDR-LBD,[171] pFA-CMV-hCAR-LBD,[171] pFA-CMV-hHNF4α-LBD,[110] pFA-CMV-hRXRα-LBD,[175] pFA-CMV-hTR2-LBD,[102] pFA-CMV-hTR4-LBD,[102] pFA-CMV-hTLX-LBD,[102] pFA-CMV-hNR2E3-LBD,[102] pFA-CMV-hNur77-LBD,[176] pFA-CMV-hSF1-LBD[158] encoding the hinge region and the LBD of the canonical isoform of the respective human nuclear receptors. pFR-Luc (Stratagene, La Jolla, CA, USA) was used as a reporter plasmid, and pRL-SV40 (Promega, Madison, WI, USA) was used for normalization of transfection efficiency and cell growth. […] After 16 h incubation, luciferase activity was measured using the Dual-Glo Luciferase Assay System (Promega) according to the manufacturer’s protocol on a Tecan Spark luminometer (Tecan Deutschland GmbH, Crailsheim, Germany). Firefly luminescence was divided by Renilla luminescence and multiplied by 1000 resulting in relative light units (RLUs) to normalize for transfection efficiency and cell growth. […] Antagonistic effects were evaluated by coincubation of the test compound with the respective reference ligand.

The target of the next series is T4, TR4 (Homo sapiens, UniProt P49116).
T4 construct: encoding the hinge region and the LBD of the canonical isoform of the respective human nuclear receptors; expressed in transfected cells; host or cells: HEK293T
Nature of the series: Gal4-hybrid reporter gene assay TR4. It is filed as cell-based. The following applies: 1 µM. The procedure: as §1

In series [9] the test system is RXRα. To be noted: reporter gene assay; read-out: RXRα cellular activity/potency; cited from earlier work.
The test system of a further series is RXRβ. To be noted: reporter gene assay; read-out: RXRβ cellular activity/potency; cited from earlier work.
In another series the test system is RXRγ. To be noted: reporter gene assay; read-out: RXRγ cellular activity/potency; cited from earlier work.
Series [10] has as its target T5, RXRα (Homo sapiens, UniProt P19793).
T5 sequence (P19793 227-458 limits assumed): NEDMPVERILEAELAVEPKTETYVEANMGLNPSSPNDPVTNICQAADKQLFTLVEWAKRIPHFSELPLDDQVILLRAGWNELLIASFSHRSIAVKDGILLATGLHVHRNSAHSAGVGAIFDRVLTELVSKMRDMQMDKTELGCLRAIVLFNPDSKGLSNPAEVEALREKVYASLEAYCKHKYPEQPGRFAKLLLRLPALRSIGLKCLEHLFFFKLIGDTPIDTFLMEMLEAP
Nature of the series: Gal4-hybrid reporter gene assay RXRα. To be noted: 1 µM.

T4 sequence (P49116 341-583 limits assumed): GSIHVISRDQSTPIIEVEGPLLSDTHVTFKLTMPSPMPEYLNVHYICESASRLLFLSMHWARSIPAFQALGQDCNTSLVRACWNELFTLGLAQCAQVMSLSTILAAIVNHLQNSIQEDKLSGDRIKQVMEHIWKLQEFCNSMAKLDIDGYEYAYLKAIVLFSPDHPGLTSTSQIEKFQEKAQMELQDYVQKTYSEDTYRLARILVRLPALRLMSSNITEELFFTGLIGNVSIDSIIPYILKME
T2 sequence (Q9Y466 155-383 limits assumed): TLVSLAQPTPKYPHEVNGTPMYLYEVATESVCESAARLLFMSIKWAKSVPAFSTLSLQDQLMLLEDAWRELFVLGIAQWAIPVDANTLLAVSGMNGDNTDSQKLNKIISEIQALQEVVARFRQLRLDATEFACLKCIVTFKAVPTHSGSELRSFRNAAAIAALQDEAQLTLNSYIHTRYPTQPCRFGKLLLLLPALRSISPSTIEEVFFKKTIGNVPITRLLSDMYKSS
Sequence of RARα (P10276 183-417 limits assumed): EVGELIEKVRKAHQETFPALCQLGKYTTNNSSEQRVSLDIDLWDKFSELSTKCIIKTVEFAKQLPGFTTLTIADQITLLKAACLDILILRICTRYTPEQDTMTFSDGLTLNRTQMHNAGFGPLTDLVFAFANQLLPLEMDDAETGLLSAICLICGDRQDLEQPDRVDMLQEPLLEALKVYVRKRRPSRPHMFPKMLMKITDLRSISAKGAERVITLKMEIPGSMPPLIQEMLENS
T3 sequence (P13056 348-590 limits assumed): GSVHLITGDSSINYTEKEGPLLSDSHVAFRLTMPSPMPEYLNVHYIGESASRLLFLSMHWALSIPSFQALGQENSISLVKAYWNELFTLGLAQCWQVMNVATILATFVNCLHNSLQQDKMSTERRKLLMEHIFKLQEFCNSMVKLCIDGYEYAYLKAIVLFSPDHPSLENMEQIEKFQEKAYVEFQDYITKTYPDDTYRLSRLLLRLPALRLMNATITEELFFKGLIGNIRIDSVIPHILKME
Experimental for RARα: HEK293T cells (German Collection of Microorganisms and Cell Culture GmbH, DSMZ) were cultured in Dulbecco’s modified Eagle’s medium (DMEM), high glucose supplemented with 10% fetal calf serum (FCS), sodium pyruvate (1 mM), penicillin (100 U/mL), and streptomycin (100 μg/mL) at 37 °C and 5% CO2 and seeded in 96-well plates (3 × 10^4 cells/well). The medium was changed to Opti-MEM without supplements, and the cells were transiently transfected with one pFA-CMV-hNR-LBD clone, pFR-Luc, and pRL-SV40 using Lipofectamine LTX reagent (Invitrogen, Thermo Fisher Scientific) according to the manufacturer’s instructions. […] After 16 h incubation, luciferase activity was measured using the Dual-Glo Luciferase Assay System (Promega) according to the manufacturer’s protocol on a Tecan Spark luminometer (Tecan Deutschland GmbH, Crailsheim, Germany). Firefly luminescence was divided by Renilla luminescence and multiplied by 1000 resulting in relative light units (RLUs) to normalize for transfection efficiency and cell growth. Fold activation was obtained by dividing the mean RLU of the test compound by the mean^a RLU of the untreated control, and relative activation was calculated by dividing the fold activation of a test sample by the fold activation of the respective reference agonist. Antagonistic effects were evaluated by coincubation of the test compound with the respective reference ligand.

As usually defined, the IC50 is the concentration needed to halve the response being measured. As to `COc1ccc(CCNc2ncnc3sc(C)cc23)cc1OC` [compound 27], the IC50 in the series on COUP-TF2 was 3200 nM. Besides, the “interaction with related NRs in pulldown assay” value in series [1] is “no relevant interaction”. Also, the “expression of COUP-TF2 target genes FOXM1 and CDK1” value in series [2] was “altered expression”. Moreover, the “prostate cancer tumor growth and angiogenesis” value with prostate cancer tumor was “inhibited prostate cancer tumor growth and angiogenesis”.

Consider `CCSc1nnc2n(CCc3ccccc3)c(=O)c3c(n12)-c1ccccc1CC31CCCCC1` [compound 26], for which the PNR modulation result on PNR (NR2E3) is on record as “confirmed albeit with rather low efficacy”. In addition, the “fold activation @ 0.1 μM” value in the series with NR2F1 [3] (reporter gene assay, 0.1 μM) is recorded as 2.4 f.A. For the same molecule, the “fold activation @ 1 μM” value in the series with NR2F1 [3] (reporter gene assay, 1 μM) is on record as 1.9 f.A. Besides, the EC50 with NR2F1 [3] (reporter gene assay, two cell lines) is 500 to 1000 nM. Further, in the series on NR2F1 [3] (two cell lines), the “enhancement of reporter activity” value was “approximately two-fold”. In the series on NR2F1 [4], the “increase in NR2F1 mRNA” value is recorded as 2.3 fold and the “increase in NR2F1 protein levels” value is on record as 10 fold. Besides, in [5], the “expression of NR2F1-regulated genes SOX9, RARβ, and p27” value is reported as “induced expression”. The “tumor growth and metastasis of HNSCC” value in [6] is “inhibited tumor growth and metastasis”.

In general, Kd refers to the constant that tells how readily two partners part at equilibrium. For `CC1(C)CC=C(c2ccccc2)c2cc(/C=C/c3ccc(C(=O)O)cc3)ccc21` [compound 17], on TLX [7], the TLX modulation entry is “not observed”. In addition, the RAR activation entry at RARα is recorded as “activated RAR”. Further, in the series on HEK293T cells, the “toxicity in HEK293T cells used for the reporter gene assays” value is listed as “pronounced toxicity”. Also, the IC50 was 367 nM in the series on TLX [8] and 159 nM in the series with full-length TLX. Also, the “effect on atrophin binding to TLX LBD” value in the series with TLX LBD is given as “displacement of atrophin”. Moreover, the Kd at TLX LBD (no precise value reported) was about 1000 nM. In the series on RARs and RXRs, the “activity on RARs and RXRs” value was “agonism on RARs and RXRs”.

In the case of `CC1(C)CCC(C)(C)c2cc(C3(c4ccc(C(=O)O)cc4)OCCO3)ccc21` [compound 11], the TR2 off-target activity result on TR2 is on record as “off-target activities”. Also, the TR4 off-target activity result at TR4 was “off-target activities”. The PNR modulation result at PNR (NR2E3) is recorded as “off-target activities”. Also, the EC50 with RXRα [9] is 29 nM; in the series with RXRβ it was 98 nM; with RXRγ, 232 nM. Also, the RXR activation result at RXRα [10] was “strong RXR activation”.
